Experimental data taken from paper PMC6749586, “Design, Synthesis, and Anticancer Effect Studies of Iridium(III) Polypyridyl Complexes against SGC-7901 Cells” (Molecules, 2019).

Key:
NIH 3T3 cells = experiment: MTT cytotoxicity assay, normal NIH 3T3; assay type: cell-based, mouse; details: 48 h, read-out: IC50 toward NIH 3T3
Text: (§1) The lung carcinoma cell line A549, the cervical cancer cell line HeLa, the esophageal cancer cell line Eca-109, and the human hepatocellular carcinoma cell line BEL-7402 were purchased from the cell bank of the Cell Institute of Sinica Academia Shanghai (Shanghai, China). The gastric adenocarcinoma cell line SGC-7901, the hepatocellular carcinoma cell line HepG2, and the mouse embryonic fibroblast cell line NIH 3T3 were obtained from the Experimental Animal Center of Sun Yat-Sen University (Guangzhou, China). The BEL-7402 and SGC-7901 cell lines were cultured in Roswell Park Memorial Institute Medium (RPMI-1640); and A549, Eca-109, HepG2, and NIH 3T3 cells were grown in Dulbecco’s Modified Eagle’s Medium (DMEM), including 10% fetal bovine serum (FBS), 100 units mL^−1 penicillin/streptomycin mixture, and 2.0 g/L of NaHCO3. Cell passage experiments were performed with trypsin every 2 days to maintain exponential growth. All cells were cultured until they reached logarithmic growth phase, unless specifically noted.
(§2) Cell cytotoxicity following treatment with the iridium(III) complexes was detected by MTT assay. The cells were seeded into 96-well micro-assay culture plates (1 × 10^4 cells per well) and grown overnight in a 5% CO2 incubator at 37 °C. Then, the cell lines were treated with gradient concentrations of the complexes 1–3. After treatment for 48 h, MTT solution (5 mg mL^−1, […]) dissolved in phosphate buffer was added to each well and the cells were further cultured for 4 h. Upon completion of incubation, the solvent was removed and 100 µL/well of buffer containing dimethylformamide (50%) and sodium dodecyl sulfate (20%) was added to dissolve the produced formazan. The absorbance of each well was measured with a microplate reader at a wavelength of 490 nm. The IC50 values were determined from the plots of viability versus concentration used to treat the cells. Three independent experiments were performed to obtain the mean values.

HepG2 cells = experiment: MTT cytotoxicity assay, HepG2; assay type: cell-based, human; details: 48 h, read-out: IC50 toward HepG2
Text: as §1, §2

HeLa cells = experiment: MTT cytotoxicity assay, HeLa; assay type: cell-based, human; details: 48 h, read-out: IC50 toward HeLa
Text: as §1, §2

SGC-7901 cells [1] = experiment: Intracellular ROS measurement with DCFH-DA; assay type: cell-based, human; details: 4.0 µM 1, 15.0 µM 2, 15.0 µM 3, Rosup positive control, 24 h, versus control
Procedure: 2,7-Dichloro-dihydrofluorescein diacetate (DCFH-DA) was used as a fluorescence probe to investigate the changes in intracellular ROS levels. SGC-7901 cells were placed in a 12-well plate at a density of 1.5 × 10^5 per well. After 24 h, the medium in the wells was replaced with a medium containing the corresponding concentration of 1–3, and the cells were incubated for 24 h. Finally, the cell pellets were suspended in PBS and imaged under the ImageXpress Micro XLS system (MD company, US). The DCF fluorescence intensity was calculated by flow cytometry.

SGC-7901 cells [2] = experiment: Cell cycle assay (PI, flow cytometry); assay type: cell-based, human; details: for Percentage in the cells, G0/G1 phase / Phase of cell cycle arrest / Percentage in the cells, G2/M phase / Percentage in the cells, S phase: 4.0 µM 1, 15.0 µM 2, 15.0 µM 3, 24 h; for Percentage in the cells, G2/M phase: control 14.92%; for Percentage in the cells, S phase: control 37.46%
Procedure: Then, each sample was washed twice with cold PBS, re-suspended in 190 μL of PBS buffer containing 4 μL of PI (1 mg/mL), 4 μL of RnaseA (10 mg/mL) and 0.2 μL of Tritonx-100, and stained in the dark for 30 min. Finally, the cells were analyzed by flow cytometry

SGC-7901 cells [3] = experiment: Colony-forming assay; assay type: cell-based, human; details: 4.0 µM 1, 15.0 µM 2, 15.0 µM 3, 8 days
Procedure: The SGC-7901 cells were seeded at a cell density of 500 cells per well in a 6-well plate. After 24 h, an equal amount of solvent or iridium complexes was added into the medium for another 24 h. Then, the medium containing the tested complexes was removed and replaced with fresh medium. The number of the colonies was counted on the 8th day after seeding and then fixed with paraformaldehyde for 20 min. The colonies were photographed under an inverted microscope after staining with 0.1% (w/v) crystal violet for 20 min. Each experiment was carried out in triplicate.

SGC-7901 cells [4] = experiment: Mitochondrial membrane potential assay with JC-1; assay type: cell-based, human; details: 24 h; for Ratio of red/green JC-1 fluorescence intensity (R), complex + NAC: 4.0 µM 1, 15.0 µM 2, 15.0 µM 3, in the presence of NAC; for Ratio of red/green JC-1 fluorescence intensity (R): substance alone: 4.0 µM 1, 15.0 µM 2, 15.0 µM 3, CCCP or NAC, control 12.03
Procedure: The SGC-7901 cells were seeded into a 12-well plate at a density of 1.5 × 10^5 cells per well and incubated to attach at 37 °C in 5% CO2. Overnight, the cells were treated with complexes 1–3 for 24 h. CCCP was used as a positive control. Then, the cells were incubated with JC-1 for 30 min at room temperature, after which the remaining dye was washed away with PBS. The samples were then observed under the ImageXpress Micro XLS system and flow cytometry was employed to quantify the fluorescence intensity.

SGC-7901 cells [5] = experiment: MTT cytotoxicity assay, SGC-7901; assay type: cell-based, human; details: 48 h; for IC50: read-out: IC50 toward SGC-7901
Text: as §1, §2

SGC-7901 cells [6] = experiment: Intracellular Ca2+ level with Fluo-3AM; assay type: cell-based, human; details: 4.0 µM 1, 15.0 µM 2, 15.0 µM 3, 24 h; controls weak green fluorescence
Procedure: SGC-7901 cells in the logarithmic growth phase were seeded in 12-well microassay culture plates (1.5 × 10^5 cells per well), incubated overnight, and then treated with different concentrations of the tested complexes (4.0 µM 1, 15.0 μM 2, and 15.0 μM 3) for 24 h. The control wells were prepared by the addition of solvent (10 μL PBS buffer). The concentration of Ca^2+ was detected using the Ca^2+-sensitive fluorescent probe Fluo-3AM. Upon completion of incubation, the medium was removed and the wells were washed twice with PBS buffer, following which the cells were dyed with Fluo-3AM for 30 min. After dyeing, the cells were washed again and stained with Hoechst 33258 (10 μg mL^−1) for 30 min. The remaining dye was removed and the cells were observed under an ImageXpress Micro XLS system.

`F[P-](F)(F)(F)(F)F.O=[N+]([O-])c1cc2ccc[n+]3c2c2c1ccc[n+]2[Ir-5]312([c]3ccccc3-c3cccc[n+]31)[c]1ccccc1-c1cccc[n+]12` [Complex 1, [Ir(Hppy)2(NP)]PF6] showed an IC50 (NIH 3T3 cells) of 14.6 ± 1.3 µM, an IC50 (HepG2 cells) of 30.9 ± 0.7 µM and an IC50 (HeLa cells) of 16.3 ± 0.9 µM. For the same compound, the “Intracellular ROS level, DCF green fluorescence (imaging)” value (shortened to “Intracellular ROS level”) (SGC-7901 cells [1]) was “increased green fluorescence intensity”, the “Percentage in the cells, G0/G1 phase” value (SGC-7901 cells [2]) was 50.28% and the “Phase of cell cycle arrest” value (SGC-7901 cells [2]) was “inhibited cell proliferation at the S phase”. For the same compound, the “Percentage in the cells, G2/M phase” value (SGC-7901 cells [2]) was 6.70%, the “Percentage in the cells, S phase” value (SGC-7901 cells [2]) was 43.02% and the “Inhibition of colony formation” value (SGC-7901 cells [3]) was “significant inhibition of colony formation”. The “Ratio of red/green JC-1 fluorescence intensity (R), complex + NAC” value (SGC-7901 cells [4]) was 1.86, the “Ratio of red/green JC-1 fluorescence intensity (R)” value (SGC-7901 cells [4]) was 0.43 and the “IC50 toward SGC-7901” value (SGC-7901 cells [5]) was “the same cytotoxicity as cisplatin”. The IC50 (SGC-7901 cells [5]) was 3.6 ± 0.1 µM and the “Intracellular Ca2+ level, Fluo-3AM fluorescence” value (“Intracellular Ca2+ level” for short) (SGC-7901 cells [6]) was “brilliant green fluorescence”.

`F[P-](F)(F)(F)(F)F.Nc1c([N+](=O)[O-])c2cccnc2c2ncccc12.[Ir+3].[c-]1ccccc1-c1ccccn1.[c-]1ccccc1-c1ccccn1` [Complex 2, [Ir(Hppy)2(NAP)]PF6] showed an IC50 (NIH 3T3 cells) of 23 ± 1.5 µM, an IC50 (HepG2 cells) of 99 ± 14.7 µM and an IC50 (HeLa cells) of 52.6 ± 1.4 µM. The “Intracellular ROS level” value (SGC-7901 cells [1]) was “increased green fluorescence intensity”, the “Percentage in the cells, G0/G1 phase” value (SGC-7901 cells [2]) was 56.65% and the “Phase of cell cycle arrest” value (SGC-7901 cells [2]) was “cell cycle arrest at G0/G1”. The “Percentage in the cells, G2/M phase” value (SGC-7901 cells [2]) was 5.49%, the “Percentage in the cells, S phase” value (SGC-7901 cells [2]) was 37.86% and the “Increase in the cells at the G0/G1 phase versus control” value (SGC-7901 cells [2]; 15.0 µM, 24 h) was 9.03%. For the same compound, the “Inhibition of colony formation” value (SGC-7901 cells [3]) was “significant inhibition of colony formation”, the “Ratio of red/green JC-1 fluorescence intensity (R), complex + NAC” value (SGC-7901 cells [4]) was 17.99 and the “Ratio of red/green JC-1 fluorescence intensity (R)” value (SGC-7901 cells [4]) was 7.12. The IC50 (SGC-7901 cells [5]) was 14.1 ± 0.5 µM and the “Intracellular Ca2+ level” value (SGC-7901 cells [6]) was “brilliant green fluorescence”.

In the case of `F[P-](F)(F)(F)(F)F.Nc1c(N)c2cccnc2c2ncccc12.[Ir+3].[c-]1ccccc1-c1ccccn1.[c-]1ccccc1-c1ccccn1` [Complex 3, [Ir(Hppy)2(DAP)]PF6], the IC50 (NIH 3T3 cells) is reported as > 100 µM, the IC50 (HepG2 cells) is reported as 95 ± 9.1 µM and the IC50 (HeLa cells) is reported as 59.7 ± 6.8 µM. For the same compound, the “Intracellular ROS level” value (SGC-7901 cells [1]) was “increased green fluorescence intensity”, the “Percentage in the cells, G0/G1 phase” value (SGC-7901 cells [2]) was 44.79% and the “Phase of cell cycle arrest” value (SGC-7901 cells [2]) was “inhibited cell proliferation at the S phase”. For the same compound, the “Percentage in the cells, G2/M phase” value (SGC-7901 cells [2]) was 10.50%, the “Percentage in the cells, S phase” value (SGC-7901 cells [2]) was 44.71% and the “Inhibition of colony formation” value (SGC-7901 cells [3]) was “significant inhibition of colony formation”. For the same compound, the “Ratio of red/green JC-1 fluorescence intensity (R)” value (SGC-7901 cells [4]) was 1.49, the IC50 (SGC-7901 cells [5]) was 11.1 ± 1.3 µM and the “Intracellular Ca2+ level” value (SGC-7901 cells [6]) was “brilliant green fluorescence”.
